# From patent EP0426021A1, “Condensed imidazole derivatives and processes for preparation thereof” (FUJISAWA PHARMACEUTICAL CO., LTD., priority 1989, dated 1991)
# Test system: spontaneous hypertensive rats
# Details: oral dose of 100 mg/kg, dissolved in water, male spontaneous hypertensive rats
# Description: (B) Effect on spontaneous hypertensive rats
# 14 to 17-week-old male spontaneous hypertensive rats with mean arterial blood pressure of about 150 mmHg, weighing 270-326 g, were used. The animals were cannulated in the left femoral artery and the mean blood pressure and heart rate were measured with a pressure-transducer. The drugs were given orally. The animals were deprived of food for about 18 hours before oral dosing. The test drugs were dissolved in water, and given in oral dose of 100 mg/kg.
smiles,measurement,value
"CCCCc1nc2cccnc2n1Cc1ccc(-c2ccccc2-c2nnn[n-]2)cc1.[Na+] [compound ①, Sodium salt of 2-butyl-3-[[2′-(1H-tetrazol-5-yl)biphenyl-4-yl]methyl]-3H-imidazo[4,5-b]pyridine]",Effect Max (mean ratio of maximum decrease of blood pressure),17.6%
